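Exposure lasted 48 hours, with cells grown in 96-well plates and compounds tested at five concentrations. Abbreviation: GI50, concentration required for 50% inhibition of growth. The concentration for full growth arrest is given as TGI.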
How the values were obtained:
Assay in all cases: DTP human tumour cell line panel, 48 h
786-0 renal = tested on: 786-0 renal
A498 renal = tested on: A498 renal
A549 NSCLC = tested on: A549 NSCLC
ACHN renal = tested on: ACHN renal
BT-549 breast = tested on: BT-549 breast
CAKI-1 renal = tested on: CAKI-1 renal
CCRF-CEM leukemia = tested on: CCRF-CEM leukemia
COLO 205 colon = tested on: COLO 205 colon
DU-145 prostate = tested on: DU-145 prostate
EKVX NSCLC = tested on: EKVX NSCLC
HCC-2998 colon = tested on: HCC-2998 colon
HCT-116 colon = tested on: HCT-116 colon
HCT-15 colon = tested on: HCT-15 colon
HL-60(TB) leukemia = tested on: HL-60(TB) leukemia
HOP-62 NSCLC = tested on: HOP-62 NSCLC
HOP-92 NSCLC = tested on: HOP-92 NSCLC
HS 578T breast = tested on: HS 578T breast
HT29 colon = tested on: HT29 colon
IGROV1 ovarian = tested on: IGROV1 ovarian
K-562 leukemia = tested on: K-562 leukemia
KM12 colon = tested on: KM12 colon
LOX IMVI melanoma = tested on: LOX IMVI melanoma
M14 melanoma = tested on: M14 melanoma
MALME-3M melanoma = tested on: MALME-3M melanoma
MCF7 breast = tested on: MCF7 breast
MDA-MB-231 breast = tested on: MDA-MB-231 breast
MDA-MB-435 = tested on: MDA-MB-435
MOLT-4 leukemia = tested on: MOLT-4 leukemia
NCI-H226 lung = tested on: NCI-H226 lung
NCI-H23 lung = tested on: NCI-H23 lung
NCI-H460 lung = tested on: NCI-H460 lung
NCI-H522 lung = tested on: NCI-H522 lung
NCI/ADR-RES ovarian = tested on: NCI/ADR-RES ovarian
OVCAR-3 ovarian = tested on: OVCAR-3 ovarian
OVCAR-4 ovarian = tested on: OVCAR-4 ovarian
OVCAR-5 ovarian = tested on: OVCAR-5 ovarian
OVCAR-8 ovarian = tested on: OVCAR-8 ovarian
PC-3 prostate = tested on: PC-3 prostate
RPMI-8226 leukemia = tested on: RPMI-8226 leukemia
RXF 393 renal = tested on: RXF 393 renal
SF-268 CNS = tested on: SF-268 CNS
SF-295 CNS = tested on: SF-295 CNS
SF-539 CNS = tested on: SF-539 CNS
SK-MEL-2 melanoma = tested on: SK-MEL-2 melanoma
SK-MEL-28 melanoma = tested on: SK-MEL-28 melanoma
SK-MEL-5 melanoma = tested on: SK-MEL-5 melanoma
SK-OV-3 ovarian = tested on: SK-OV-3 ovarian
SN12C renal = tested on: SN12C renal
SNB-19 CNS = tested on: SNB-19 CNS
SNB-75 CNS = tested on: SNB-75 CNS
SR leukemia = tested on: SR leukemia
SW-620 colon = tested on: SW-620 colon
T-47D breast = tested on: T-47D breast
TK-10 renal = tested on: TK-10 renal
U251 CNS = tested on: U251 CNS
UACC-257 melanoma = tested on: UACC-257 melanoma
UACC-62 melanoma = tested on: UACC-62 melanoma
UO-31 renal = tested on: UO-31 renal

Question: O=c1oc2ccc(Cl)cc2c(=O)n1-c1cc(C(F)(F)F)cc(C(F)(F)F)c1 was tested. Which GI50 (786-0 renal) did it give?
Answer: 316 nM

Question: And the TGI (786-0 renal)?
Answer: 1140 nM

Question: What about the GI50 (A498 renal) of the same molecule?
Answer: 53.1 nM

Question: What about the TGI (A498 renal) of the same molecule?
Answer: 311 nM

Question: What about the GI50 (A549 NSCLC) of the same molecule?
Answer: 339 nM

Question: What about the TGI (A549 NSCLC) of the same molecule?
Answer: 13100 nM

Question: And the GI50 (ACHN renal)?
Answer: 303 nM

Question: What about the TGI (ACHN renal) of the same molecule?
Answer: 10500 nM

Question: What about the GI50 (BT-549 breast) of the same molecule?
Answer: 258 nM

Question: And the TGI (BT-549 breast)?
Answer: 860 nM

Question: And the GI50 (CAKI-1 renal)?
Answer: 198 nM

Question: And the TGI (CAKI-1 renal)?
Answer: 689 nM

Question: And the GI50 (CCRF-CEM leukemia)?
Answer: 388 nM

Question: What about the TGI (CCRF-CEM leukemia) of the same molecule?
Answer: 10200 nM

Question: What about the GI50 (COLO 205 colon) of the same molecule?
Answer: 1780 nM

Question: What about the TGI (COLO 205 colon) of the same molecule?
Answer: 3720 nM

Question: And the GI50 (DU-145 prostate)?
Answer: 372 nM

Question: What about the TGI (DU-145 prostate) of the same molecule?
Answer: 13900 nM

Question: What about the GI50 (EKVX NSCLC) of the same molecule?
Answer: 288 nM

Question: What about the TGI (EKVX NSCLC) of the same molecule?
Answer: 2010 nM

Question: And the GI50 (HCC-2998 colon)?
Answer: 346 nM

Question: What about the TGI (HCC-2998 colon) of the same molecule?
Answer: 3770 nM

Question: What about the GI50 (HCT-116 colon) of the same molecule?
Answer: 277 nM

Question: What about the TGI (HCT-116 colon) of the same molecule?
Answer: 1210 nM

Question: What about the GI50 (HCT-15 colon) of the same molecule?
Answer: 306 nM

Question: What about the TGI (HCT-15 colon) of the same molecule?
Answer: 1780 nM

Question: What about the GI50 (HL-60(TB) leukemia) of the same molecule?
Answer: 231 nM

Question: What about the TGI (HL-60(TB) leukemia) of the same molecule?
Answer: 553 nM

Question: And the GI50 (HOP-62 NSCLC)?
Answer: 352 nM

Question: And the TGI (HOP-62 NSCLC)?
Answer: 4360 nM

Question: And the GI50 (HOP-92 NSCLC)?
Answer: 112 nM

Question: And the TGI (HOP-92 NSCLC)?
Answer: 479 nM

Question: What about the GI50 (HS 578T breast) of the same molecule?
Answer: 239 nM

Question: And the TGI (HS 578T breast)?
Answer: 987 nM

Question: What about the GI50 (HT29 colon) of the same molecule?
Answer: 2120 nM

Question: What about the TGI (HT29 colon) of the same molecule?
Answer: 14600 nM

Question: And the GI50 (IGROV1 ovarian)?
Answer: 412 nM

Question: And the TGI (IGROV1 ovarian)?
Answer: 12900 nM

Question: And the GI50 (K-562 leukemia)?
Answer: 211 nM

Question: And the TGI (K-562 leukemia)?
Answer: > 38000 nM

Question: And the GI50 (KM12 colon)?
Answer: 342 nM

Question: What about the TGI (KM12 colon) of the same molecule?
Answer: 1320 nM

Question: And the GI50 (LOX IMVI melanoma)?
Answer: 366 nM

Question: And the TGI (LOX IMVI melanoma)?
Answer: 2330 nM

Question: What about the GI50 (M14 melanoma) of the same molecule?
Answer: 300 nM

Question: What about the TGI (M14 melanoma) of the same molecule?
Answer: 1780 nM

Question: What about the GI50 (MALME-3M melanoma) of the same molecule?
Answer: 222 nM

Question: What about the TGI (MALME-3M melanoma) of the same molecule?
Answer: 696 nM

Question: And the GI50 (MCF7 breast)?
Answer: 278 nM

Question: And the TGI (MCF7 breast)?
Answer: 13500 nM

Question: And the GI50 (MDA-MB-231 breast)?
Answer: 289 nM

Question: What about the TGI (MDA-MB-231 breast) of the same molecule?
Answer: 4360 nM

Question: What about the GI50 (MDA-MB-435) of the same molecule?
Answer: 313 nM

Question: What about the TGI (MDA-MB-435) of the same molecule?
Answer: 2070 nM

Question: And the GI50 (MOLT-4 leukemia)?
Answer: 352 nM

Question: What about the TGI (MOLT-4 leukemia) of the same molecule?
Answer: 2480 nM

Question: What about the GI50 (NCI-H226 lung) of the same molecule?
Answer: 305 nM

Question: What about the TGI (NCI-H226 lung) of the same molecule?
Answer: 2210 nM

Question: What about the GI50 (NCI-H23 lung) of the same molecule?
Answer: 289 nM

Question: And the TGI (NCI-H23 lung)?
Answer: 1110 nM

Question: And the GI50 (NCI-H460 lung)?
Answer: 308 nM

Question: And the TGI (NCI-H460 lung)?
Answer: 5160 nM

Question: And the GI50 (NCI-H522 lung)?
Answer: 250 nM

Question: What about the TGI (NCI-H522 lung) of the same molecule?
Answer: 2570 nM

Question: What about the GI50 (NCI/ADR-RES ovarian) of the same molecule?
Answer: 264 nM

Question: And the TGI (NCI/ADR-RES ovarian)?
Answer: 1370 nM

Question: And the GI50 (OVCAR-3 ovarian)?
Answer: 276 nM

Question: What about the TGI (OVCAR-3 ovarian) of the same molecule?
Answer: 10700 nM

Question: And the GI50 (OVCAR-4 ovarian)?
Answer: 292 nM

Question: What about the TGI (OVCAR-4 ovarian) of the same molecule?
Answer: 29200 nM

Question: What about the GI50 (OVCAR-5 ovarian) of the same molecule?
Answer: 423 nM

Question: What about the TGI (OVCAR-5 ovarian) of the same molecule?
Answer: 17400 nM

Question: And the GI50 (OVCAR-8 ovarian)?
Answer: 323 nM

Question: What about the GI50 (PC-3 prostate) of the same molecule?
Answer: 302 nM

Question: And the TGI (PC-3 prostate)?
Answer: 4490 nM

Question: What about the GI50 (RPMI-8226 leukemia) of the same molecule?
Answer: 188 nM

Question: What about the TGI (RPMI-8226 leukemia) of the same molecule?
Answer: 712 nM

Question: What about the GI50 (RXF 393 renal) of the same molecule?
Answer: 228 nM

Question: And the TGI (RXF 393 renal)?
Answer: 746 nM

Question: And the GI50 (SF-268 CNS)?
Answer: 262 nM

Question: What about the TGI (SF-268 CNS) of the same molecule?
Answer: 5500 nM

Question: What about the GI50 (SF-295 CNS) of the same molecule?
Answer: 206 nM

Question: And the TGI (SF-295 CNS)?
Answer: 504 nM

Question: What about the GI50 (SF-539 CNS) of the same molecule?
Answer: 317 nM

Question: And the TGI (SF-539 CNS)?
Answer: 1740 nM

Question: What about the GI50 (SK-MEL-2 melanoma) of the same molecule?
Answer: 236 nM

Question: What about the TGI (SK-MEL-2 melanoma) of the same molecule?
Answer: 846 nM

Question: And the GI50 (SK-MEL-28 melanoma)?
Answer: 273 nM

Question: What about the TGI (SK-MEL-28 melanoma) of the same molecule?
Answer: 1690 nM

Question: And the GI50 (SK-MEL-5 melanoma)?
Answer: 138 nM

Question: What about the TGI (SK-MEL-5 melanoma) of the same molecule?
Answer: 336 nM

Question: And the GI50 (SK-OV-3 ovarian)?
Answer: 205 nM

Question: What about the TGI (SK-OV-3 ovarian) of the same molecule?
Answer: 2380 nM

Question: What about the GI50 (SN12C renal) of the same molecule?
Answer: 259 nM

Question: And the TGI (SN12C renal)?
Answer: 3800 nM

Question: What about the GI50 (SNB-19 CNS) of the same molecule?
Answer: 293 nM

Question: What about the TGI (SNB-19 CNS) of the same molecule?
Answer: 11700 nM

Question: What about the GI50 (SNB-75 CNS) of the same molecule?
Answer: 201 nM

Question: What about the TGI (SNB-75 CNS) of the same molecule?
Answer: 786 nM

Question: What about the GI50 (SR leukemia) of the same molecule?
Answer: 308 nM

Question: What about the TGI (SR leukemia) of the same molecule?
Answer: > 51000 nM

Question: What about the GI50 (SW-620 colon) of the same molecule?
Answer: 328 nM

Question: What about the TGI (SW-620 colon) of the same molecule?
Answer: 5950 nM

Question: What about the GI50 (T-47D breast) of the same molecule?
Answer: 229 nM

Question: What about the TGI (T-47D breast) of the same molecule?
Answer: 2400 nM

Question: And the GI50 (TK-10 renal)?
Answer: 395 nM

Question: And the TGI (TK-10 renal)?
Answer: 11000 nM

Question: What about the GI50 (U251 CNS) of the same molecule?
Answer: 254 nM

Question: What about the TGI (U251 CNS) of the same molecule?
Answer: 11600 nM

Question: What about the GI50 (UACC-257 melanoma) of the same molecule?
Answer: 233 nM

Question: And the TGI (UACC-257 melanoma)?
Answer: 1600 nM

Question: And the GI50 (UACC-62 melanoma)?
Answer: 147 nM

Question: What about the TGI (UACC-62 melanoma) of the same molecule?
Answer: 673 nM

Question: And the GI50 (UO-31 renal)?
Answer: 238 nM

Question: And the TGI (UO-31 renal)?
Answer: 831 nM

— PubChem BioAssay (NCI)
